# In patent US8828678B2, “Self-immolative probes for enzyme activity detection” (Enzo Life Sciences, Inc., priority 2010, dated 2014):
# What was measured:
# [1] = test system: hypoxic HeLa cells; test: Detection of hypoxia with hypoxia markers using fluorescence microscopy; assay type: cell-based, human; conditions: 5 μM, 3.5 h, chemical induction of hypoxia (CoCl2, DFO, DMOG) or anoxic treatment, FITC filter
# Experimental: The human cervical adenocarcinoma epithelial cell line HeLa, U-2 OS human bone osteosarcoma cell line and hamster ovary CHO K1 cell line were obtained from ATTC. HeLa cells were routinely cultured in Eagle's Minimum Essential Medium with low glucose (ATCC), supplemented with 10% fetal bovine serum (ATCC) and 100 U/ml penicillin, 100 μg/ml streptomycin (Sigma-Aldrich, St. Louis, Mo.). U-2 OS cells were routinely cultured in McCoy's 5a Modified Medium (ATCC), supplemented with 10% fetal bovine serum heat (ATCC) and 100 U/ml penicillin+100 μg/ml streptomycin (Sigma-Aldrich). […]
# The day before the experiment, the cells were seeded on 4-well microscope slides (Cel-Line™ Brand, Portsmouth, N.H.) at a density 1×10^4 cells/well (2×10^4 cells/cm^2). […] Post-treatment, the slides were washed twice with PBS, coverslipped and visualized using an Olympus BX-51 fluorescence microscope (FITC filter set, 490ex/525em).
# In parallel, the hypoxia cellular state was detected using the hypoxia detecting reagent pimonidazole (Varia et al., 1998; Young, 1977). […] Slides were stained with a 1:100 dilution of FITC-MAb1 against pimonidazole (HP-1 kit from Hypoxyprobe) for 45 min at 4° C., washed twice with PBS, coverslipped and visualized using an Olympus BX-51 fluorescence microscope equipped with an FITC filter set (490ex/525em). […]
# [2] = test system: Jurkat cells; test: Combined detection of hypoxia and superoxide in live cells by flow cytometry; assay type: cell-based, human; conditions: CD-1 5 μM in combination with superoxide detection reagent, flow cytometry
# Experimental: HeLa, U-2 OS, and Jurkat cell lines were cultured as described in Examples 7 and 9. Stock solutions of the probes and inhibitors were prepared as described in Examples 7 and 10.
# The day before the experiment, HeLa and U-2 OS cells were seeded in 6-well tissue culture plates at a density of 5×10^5 cells/well. Jurkat cells were collected in logarithmic phase of growth and aliquoted at a density of 5×10^5 cells/sample. On the day of the experiment, the cells were preloaded with either hypoxia or ROS-detecting probes only or with the combination of hypoxia and ROS-detecting probes with compatible spectral characteristics. Samples stained with single hypoxia probes or with two ROS-detecting probes were made to validate data obtained with the combination of hypoxia and redox probes. The probes used in the experiment and their final concentrations in cell culture medium were as follows: CD-1(5 μM) and CD-6 (1 μM), DCFDA, peroxide/peroxynitrite/hydroxyl detection probe and HE, specific superoxide detection reagent (1 μM for both redox probes). Hypoxia was induced in the cells as described in Example 7. Additionally, cells were treated with different general and specific ROS inducers and stained with ROS-detecting probes to control ROS production and staining. Post-treatment, the adherent cells (HeLa and U-2 OS) were collected by trypsinization, re-suspended in 0.5 mL of fresh PBS and analyzed using flow cytometry. Jurkat cells were analyzed without washing. Flow cytometry experiments were performed using an FACS Calibur benchtop flow cytometer (BD Biosciences) equipped with a blue (488 nm) laser, and the fluorescence was recorded in the FITC (530/30 filter), PE (585/42 filter) and PerCP (670 LP filter) channels. Data were collected uncompensated, also compensation corrections were performed using unstained cells, and cells stained with each single dye separately (CD-1, CD-6, DCFDA or HE). To quantify data, quadrant gates were set using untreated samples.
smiles,measurement,setting,value
O=C(Nc1ccc2c(c1)Oc1cc(NC(=O)N3CCOCC3)ccc1C21OC(=O)c2ccccc21)OCc1ccc([N+](=O)[O-])cc1 (centres unmarked) [CD-1],fluorescence signal in hypoxic HeLa cells,[1],bright fluorescence signal
same,population of green positive cells in hypoxia-induced Jurkat samples,[2],increased population of green positive cells
